Measured values published in US20110269680A1 (PANACEA BIOTEC LIMITED, priority 2008, published 2011).
Like-named read-outs stand apart in the source and are kept apart here. Numbered stars: 1 amine (or outer) side, 2 acyl side, 3 side chain; on linkers, the order of the positions; unused ones are H or OH. Square brackets hold non-standard residues; d marks the D form. Peptide text beside a SMILES is read from it. X1 = CO[C@H]1O[C@H](C(=O)[*:2])[C@@H](O)[C@H](O)[C@H]1N[*:1]; 2Furoyl(5-aminomethyl) = O=C(c1ccc(CN[*:1])o1)[*:2]; Aib = CC(C)(N)C(=O)O

What was measured:
NEP 24.11 = target: T1, NEP 24.11 (Homo sapiens, UniProt P08473); assay: NEP 24.11 resistant (degradation) assay; format: in vitro ADME; settings: for half-life at 20 μM: buffer
T1 construct: purchased Calbiochem
T1 sequence (P08473 whole entry): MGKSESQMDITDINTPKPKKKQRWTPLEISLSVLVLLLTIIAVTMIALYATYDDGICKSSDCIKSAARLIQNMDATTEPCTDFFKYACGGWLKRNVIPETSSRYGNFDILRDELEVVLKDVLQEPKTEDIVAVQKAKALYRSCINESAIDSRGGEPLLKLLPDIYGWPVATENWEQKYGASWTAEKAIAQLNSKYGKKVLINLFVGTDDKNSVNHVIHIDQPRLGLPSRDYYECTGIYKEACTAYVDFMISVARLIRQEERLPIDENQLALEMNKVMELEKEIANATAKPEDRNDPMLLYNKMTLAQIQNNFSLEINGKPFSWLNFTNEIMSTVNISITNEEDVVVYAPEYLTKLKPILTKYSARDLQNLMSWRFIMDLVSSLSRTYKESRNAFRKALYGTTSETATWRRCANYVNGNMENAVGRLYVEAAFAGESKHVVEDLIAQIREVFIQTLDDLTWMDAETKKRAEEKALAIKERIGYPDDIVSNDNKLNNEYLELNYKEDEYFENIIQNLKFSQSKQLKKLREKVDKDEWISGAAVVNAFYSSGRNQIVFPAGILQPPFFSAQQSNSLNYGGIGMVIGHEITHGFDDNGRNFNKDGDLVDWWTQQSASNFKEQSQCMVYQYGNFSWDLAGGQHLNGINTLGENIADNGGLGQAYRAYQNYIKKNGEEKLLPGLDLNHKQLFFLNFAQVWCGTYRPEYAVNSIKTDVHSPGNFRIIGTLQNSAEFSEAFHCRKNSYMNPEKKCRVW
Experimental: The aliquots were analyzed for the amount of undegraded peptide concentration at different time intervals using RP-HPLC by peak area integration. T1/2 of each peptide was determined from the graph plotted between peak area of undegraded peptide vs time.

DPP-IV = target: T2, DPP-IV (Homo sapiens, UniProt P27487); assay: DPP-IV resistant assay; format: in vitro ADME
T2 construct: purchased Sigma-Aldrich
T2 sequence (P27487 whole entry, species assumed): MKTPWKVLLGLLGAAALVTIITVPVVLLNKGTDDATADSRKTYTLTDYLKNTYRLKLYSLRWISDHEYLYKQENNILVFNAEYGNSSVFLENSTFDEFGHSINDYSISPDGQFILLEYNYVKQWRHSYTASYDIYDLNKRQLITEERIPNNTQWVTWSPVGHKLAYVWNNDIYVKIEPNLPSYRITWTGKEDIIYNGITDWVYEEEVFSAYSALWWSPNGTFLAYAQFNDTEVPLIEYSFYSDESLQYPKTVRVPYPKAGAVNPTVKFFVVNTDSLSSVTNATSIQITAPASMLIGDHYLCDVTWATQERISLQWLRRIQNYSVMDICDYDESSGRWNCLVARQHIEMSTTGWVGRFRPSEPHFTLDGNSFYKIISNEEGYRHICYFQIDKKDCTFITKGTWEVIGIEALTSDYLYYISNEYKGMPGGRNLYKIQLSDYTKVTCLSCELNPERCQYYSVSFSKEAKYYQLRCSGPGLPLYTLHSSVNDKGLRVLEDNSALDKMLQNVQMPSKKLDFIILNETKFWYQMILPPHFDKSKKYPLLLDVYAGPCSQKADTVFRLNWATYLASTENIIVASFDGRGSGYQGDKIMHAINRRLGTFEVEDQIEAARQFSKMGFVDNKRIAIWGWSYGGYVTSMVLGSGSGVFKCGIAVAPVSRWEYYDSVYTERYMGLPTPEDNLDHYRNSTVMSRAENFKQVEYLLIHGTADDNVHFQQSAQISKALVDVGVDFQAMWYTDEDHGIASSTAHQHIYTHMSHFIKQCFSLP
Experimental: 20 μM of peptides of the present invention (Sequence IDs—01, 02, 03, 04, 05, 06, 11, 12 and 13) were incubated with 60 mU/2 ml of DPP-IV (Sigma-Aldrich) enzyme at room temperature (22-24° C.) in 20 mM Tris HCl buffer, pH 8.0. The aliquots were analyzed for the amount of undegraded peptide concentration at different time intervals by RP-HPLC. The peak area integration was used to determine the amount of undegraded peptide (U.S. Pat. No. 7,067,488). T1/2 of each peptide was determined from the graph plotted between peak area of undegraded peptide vs. time. The peak area of DPP-IV untreated peptide in above mentioned buffer condition of same concentration was considered as time zero. […]

GLP-1R = target: T3, GLP-1R (Homo sapiens, UniProt P43220); assay: In vitro receptor functional assay (cAMP) in CHO/GLP-1R cells; format: cell-based; settings: intracellular cAMP, 30 min with 1 mM IBMX
T3 construct: expressed in transfected cells; host or cells: CHO/GLP-1R cells
T3 sequence (P43220 24-463, species assumed): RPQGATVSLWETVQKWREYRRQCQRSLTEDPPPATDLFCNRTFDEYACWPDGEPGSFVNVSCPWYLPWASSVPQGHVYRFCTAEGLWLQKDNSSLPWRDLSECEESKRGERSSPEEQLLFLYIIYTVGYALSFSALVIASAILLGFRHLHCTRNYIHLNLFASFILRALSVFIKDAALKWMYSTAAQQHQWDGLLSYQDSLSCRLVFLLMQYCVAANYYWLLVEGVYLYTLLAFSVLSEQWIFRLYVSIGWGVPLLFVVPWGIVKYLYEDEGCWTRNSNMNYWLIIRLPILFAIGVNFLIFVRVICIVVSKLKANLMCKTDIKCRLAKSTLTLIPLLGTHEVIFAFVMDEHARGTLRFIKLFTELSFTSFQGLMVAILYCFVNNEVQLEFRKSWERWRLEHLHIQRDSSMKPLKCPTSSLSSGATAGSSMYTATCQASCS
Description: cAMP is a ubiquitous cellular second messenger that is critical component of a signal transduction pathway linking membrane receptors and their ligands to the activation of internal cellular enzymatic activity and gene expression. cAMP is synthesized from ATP by membrane bound adenylate cyclase in a very regulated manner. In its simpler form, binding of a ligand, such as hormone or drug, to its specific G protein coupled receptor can either stimulate or inhibit adenylate cyclase depending on the GPCR being activated. […] Therefore the relative concentration of cAMP serves as a means to monitor the activity of GPCRs at the cell surface.
CHO/GLP-1R Cell Culture—CHO/GLP-1R Cells were maintained in Ham's F-12 medium containing 10% Fetal bovine serum and 1% penicillin-streptomycin antibiotic solution at 37° C. in a 5% CO2 incubator.
Cells were washed twice with PBS (pH-7.2) and incubated with 100 μl Ham's F-12 serum free medium supplemented with 0.1% BSA for 2 hr at 37° C. in 5% CO2 incubator. Cells were then incubated in 100 μl Ham's F-12 serum free medium supplemented with 0.1% BSA with 1 mM IBMX in the presence as well as absence of the peptides as per present invention in different concentration (10 nM, 1 nM, 100 pM & 10 pM). The reaction was stopped 30 min later by washing the intact cells three times with ice cold PBS (pH-7.2). The intracellular cAMP was extracted by incubating the cells in 100 μl 0.1N HCl at room temperature for 20 minutes. Mixture was dissociated by pipetting up and down until the suspension became homogenous, transferred to centrifuge tube and centrifuged at 800 rpm for 10 minutes.
Dissolved 5 pNPP tablets in 25 ml DEA buffer. Wells were emptied and washed five times with wash buffer and added 200 μl pNPP solution to each well, plate was covered and allowed to develop in dark for 90 minutes.

CC[C@H](C)[C@H](NC(=O)[C@H](Cc1ccccc1)NC(=O)[C@H](CCC(=O)O)NC(=O)[C@H](CCCCN)NC(=O)[C@H](C)NC(=O)[C@H](C)NC(=O)[C@H](CCC(N)=O)NC(=O)CNC(=O)[C@H](CCC(=O)O)NC(=O)[C@H](CC(C)C)NC(=O)[C@H](Cc1ccc(O)cc1)NC(=O)[C@H](CO)NC(=O)[C@H](CO)NC(=O)[C@@H](NC(=O)[C@H](CC(=O)O)NC(=O)[C@H](CO)NC(=O)[C@@H](NC(=O)[C@H](Cc1ccccc1)NC(=O)[C@@H](NC(=O)CNC(=O)[C@H](CCC(=O)O)NC(=O)[C@H](C)NC(=O)[C@@H](N)Cc1c[nH]cn1)[C@@H](C)O)[C@@H](C)O)C(C)C)C(=O)N[C@@H](C)C(=O)N[C@@H](Cc1c[nH]c2ccccc12)C(=O)N[C@@H](CC(C)C)C(=O)N[C@H](C(=O)N[C@@H](CCCCN)C(=O)NCC(=O)N[C@@H](CCCNC(=N)N)C(N)=O)C(C)C [GLP-1(7-36) parent, GLP-1(7-36), reference compound]
metabolised at 54 h, 20 μM (NEP 24.11; isolated enzyme neprilysin, pH 7.4, NEP 24.11, after 54 hrs, read-out: % Degradation (after 54 hrs)): 98.3%

CC[C@H](C)[C@H](NC(=O)[C@H](Cc1ccccc1)NC(=O)[C@H](CCC(=O)O)NC(=O)[C@H](CCCCN)NC(=O)[C@H](C)NC(=O)[C@H](C)NC(=O)[C@H](CCC(N)=O)NC(=O)CNC(=O)[C@H](CCC(=O)O)NC(=O)[C@H](CC(C)C)NC(=O)[C@H](Cc1ccc(O)cc1)NC(=O)[C@H](CO)NC(=O)[C@H](CO)NC(=O)C(C)(C)NC(=O)[C@H](CC(=O)O)NC(=O)[C@H](CO)NC(=O)[C@@H](NC(=O)[C@H](Cc1ccccc1)NC(=O)[C@@H](NC(=O)CNC(=O)[C@H](CCC(=O)O)NC(=O)c1ccc(CNC(=O)[C@@H](N)Cc2c[nH]cn2)o1)[C@@H](C)O)[C@@H](C)O)C(=O)NC(C)(C)C(=O)N[C@@H](Cc1c[nH]c2ccccc12)C(=O)N[C@@H](CC(C)C)C(=O)N[C@H](C(=O)N[C@@H](CCCCN)C(=O)NCC(=O)N[C@@H](CCCNC(=N)N)C(N)=O)C(C)C [Seq ID No. 04] (H-H[2Furoyl(5-aminomethyl)]EGTFTSD[Aib]SSYLEGQAAKEFI[Aib]WLVKGR-NH2; N-terminus assumed)
Percentage degradation in hrs (DPP-IV): 12.87% | half-life at 20 μM (DPP-IV; pH 8): > 24 h | half-life at 20 μM (NEP 24.11; pH 7.4): > 56 h | metabolised at 54 h, 20 μM (NEP 24.11; isolated enzyme neprilysin, pH 7.4): 26%

CC[C@H](C)[C@H](NC(=O)[C@H](Cc1ccccc1)NC(=O)[C@H](CCC(=O)O)NC(=O)[C@H](CCCCN)NC(=O)[C@H](C)NC(=O)[C@H](C)NC(=O)[C@H](CCC(N)=O)NC(=O)CNC(=O)[C@H](CCC(=O)O)NC(=O)[C@H](CC(C)C)NC(=O)[C@H](Cc1ccc(O)cc1)NC(=O)[C@H](CO)NC(=O)[C@H](CO)NC(=O)[C@@H](NC(=O)[C@H](CC(=O)O)NC(=O)[C@H](CO)NC(=O)[C@@H](NC(=O)[C@H](Cc1ccccc1)NC(=O)[C@@H](NC(=O)CNC(=O)[C@H]1O[C@H](OC)[C@H](NC(=O)[C@@H](N)Cc2c[nH]cn2)[C@@H](O)[C@@H]1O)[C@@H](C)O)[C@@H](C)O)C(C)C)C(=O)N[C@@H](C)C(=O)N[C@@H](Cc1c[nH]c2ccccc12)C(=O)N[C@@H](CC(C)C)C(=O)N[C@H](C(=O)N[C@@H](CCCCN)C(=O)NCC(=O)N[C@@H](CCCNC(=N)N)C(N)=O)C(C)C [Seq ID No. 07]
EC50 (GLP-1R): 0.056 nM

CC[C@H](C)[C@H](NC(=O)[C@H](Cc1ccccc1)NC(=O)[C@H](CCC(=O)O)NC(=O)[C@H](CCCCN)NC(=O)[C@H](C)NC(=O)[C@H](C)NC(=O)[C@H](CCC(N)=O)NC(=O)CNC(=O)[C@H](CCC(=O)O)NC(=O)[C@H](CC(C)C)NC(=O)[C@H](Cc1ccc(O)cc1)NC(=O)[C@H](CO)NC(=O)[C@H](CO)NC(=O)[C@@H](NC(=O)[C@H](CC(=O)O)NC(=O)[C@H](CO)NC(=O)[C@@H](NC(=O)[C@H](Cc1ccccc1)NC(=O)[C@@H](NC(=O)CNC(=O)c1ccc(CNC(=O)[C@@H](N)Cc2c[nH]cn2)o1)[C@@H](C)O)[C@@H](C)O)C(C)C)C(=O)N[C@@H](C)C(=O)N[C@@H](Cc1c[nH]c2ccccc12)C(=O)N[C@@H](CC(C)C)C(=O)N[C@H](C(=O)N[C@@H](CCCCN)C(=O)NCC(=O)N[C@@H](CCCNC(=N)N)C(N)=O)C(C)C [Seq ID No. 08]
EC50 (GLP-1R): 0.601 nM

CC[C@H](C)[C@H](NC(=O)[C@H](Cc1ccccc1)NC(=O)[C@H](CCC(=O)O)NC(=O)[C@H](CCCCN)NC(=O)[C@H](C)NC(=O)[C@H](C)NC(=O)[C@H](CCC(N)=O)NC(=O)CNC(=O)[C@H](CCC(=O)O)NC(=O)[C@H](CC(C)C)NC(=O)[C@H](Cc1ccc(O)cc1)NC(=O)[C@H](CO)NC(=O)[C@H](CO)NC(=O)C(C)(C)NC(=O)[C@H](CC(=O)O)NC(=O)[C@H](CO)NC(=O)[C@@H](NC(=O)[C@H](Cc1ccccc1)NC(=O)[C@@H](NC(=O)CNC(=O)[C@H](CCC(=O)O)NC(=O)c1ccc(CNC(=O)[C@@H](N)Cc2c[nH]cn2)o1)[C@@H](C)O)[C@@H](C)O)C(=O)NC(C)(C)C(=O)N[C@@H](Cc1c[nH]c2ccccc12)C(=O)N[C@@H](CC(C)C)C(=O)N[C@H](C(=O)N[C@@H](CCCCN)C(=O)NCC(=O)N[C@@H](CCCNC(=N)N)C(=O)NCC(N)=O)C(C)C [Seq ID No. 09] (H-H[2Furoyl(5-aminomethyl)]EGTFTSD[Aib]SSYLEGQAAKEFI[Aib]WLVKGRG-NH2)
EC50 (GLP-1R): 1 nM

CC[C@H](C)[C@H](NC(=O)[C@H](Cc1ccccc1)NC(=O)[C@H](CCC(=O)O)NC(=O)[C@H](CCCCN)NC(=O)[C@H](C)NC(=O)[C@H](C)NC(=O)[C@H](CCC(N)=O)NC(=O)CNC(=O)[C@H](CCC(=O)O)NC(=O)[C@H](CC(C)C)NC(=O)[C@H](Cc1ccc(O)cc1)NC(=O)[C@H](CO)NC(=O)[C@H](CO)NC(=O)[C@@H](NC(=O)[C@H](CC(=O)O)NC(=O)[C@H](CO)NC(=O)[C@@H](NC(=O)[C@H](Cc1ccccc1)NC(=O)[C@@H](NC(=O)CNC(=O)[C@H](CCC(=O)O)NC(=O)c1ccc(CNC(=O)[C@@H](N)Cc2c[nH]cn2)o1)[C@@H](C)O)[C@@H](C)O)C(C)C)C(=O)N[C@@H](C)C(=O)N[C@@H](Cc1c[nH]c2ccccc12)C(=O)N[C@@H](CC(C)C)C(=O)N[C@H](C(=O)N[C@@H](CCCCN)C(=O)NC(C)(C)C(=O)N[C@@H](CCCNC(=N)N)C(N)=O)C(C)C [Seq ID No. 11]
half-life at 20 μM (DPP-IV; 20 μM peptide, 60 mU/2 ml DPP-IV, room temperature (22-24° C.), 20 mM Tris HCl pH 8.0, RP-HPLC, read-out: T1/2 in Hrs): > 24 h | Percentage degradation in hrs (DPP-IV; DPP-IV, in 24 hrs): 20% | half life against DPP-IV compared with parent GLP-1 molecules (DPP-IV; versus GLP-1(7-37) parent and GLP-1(7-36) parent): better half lives than the parent GLP-1 molecules

CC[C@H](C)[C@H](NC(=O)[C@H](Cc1ccccc1)NC(=O)[C@H](CC(C)C)NC(=O)[C@H](CCCCN)NC(=O)[C@H](C)NC(=O)[C@H](C)NC(=O)[C@H](CCC(N)=O)NC(=O)CNC(=O)[C@H](CCC(=O)O)NC(=O)[C@H](CCC(N)=O)NC(=O)[C@H](Cc1ccc(O)cc1)NC(=O)[C@H](CO)NC(=O)[C@H](CC(C)C)NC(=O)[C@@H](NC(=O)[C@H](CC(=O)O)NC(=O)[C@H](CO)NC(=O)[C@@H](NC(=O)[C@H](Cc1ccccc1)NC(=O)[C@@H](NC(=O)CNC(=O)[C@H]1O[C@H](OC)[C@H](NC(=O)[C@@H](N)Cc2c[nH]cn2)[C@@H](O)[C@@H]1O)[C@@H](C)O)[C@@H](C)O)C(C)C)C(=O)N[C@@H](CCC(=O)O)C(=O)N[C@@H](Cc1c[nH]c2ccccc12)C(=O)N[C@@H](CC(C)C)C(=O)N[C@H](C(=O)N[C@@H](CCCCN)C(=O)NCC(=O)N[C@@H](CCCNC(=N)N)C(N)=O)C(C)C [Seq ID No. 12] (H-H[X1]GTFTSDVLSYQEGQAAKLFIEWLVKGR-NH2; N-terminus assumed)
Percentage degradation in hrs (DPP-IV): 24.93% | half-life at 20 μM (DPP-IV; pH 8): > 24 h | half-life at 20 μM (NEP 24.11; 20 μM peptide, 1 mg/ml NEP 24.11, 37° C., 50 mM Hepes, 50 mM NaCl, pH 7.4, RP-HPLC, read-out: T1/2 (converted)): 27.5 h | metabolised at 54 h, 20 μM (NEP 24.11; isolated NEP 24.11 enzyme (Calbiochem), pH 7.4, NEP 24.11, after 54 hrs, read-out: % Degradation (after 54 hrs)): 93.5%
